Data published in the supplement of paper PMC13380429.

Tests used:
A549-ACE2 [1] = assay: drug-induced phospholipidosis relative to tamoxifen; higher = more phospholipidosis
[2] = test system: A549-ACE2 infected with SARS-CoV-2; assay: cell count relative to DMSO; higher = less toxic; conditions: 24 h
Caco-2 [3] = assay: cell viability relative to DMSO; higher = less toxic; conditions: 72 h
HepG2 [4] = assay: as above; conditions: 72 h
Calu-3 [5] = assay: as above; conditions: 72 h
U2OS [6] = assay: as above; conditions: 72 h
Vero E6 [7] = assay: as above; conditions: 72 h
Caco-2 [8] = assay: relative viability EC50 (midpoint between 100% and the lowest measured viability); higher = less toxic; conditions: 72 h
HepG2 [9] = assay: as above; conditions: 72 h
Calu-3 [10] = assay: as above; conditions: 72 h
U2OS [11] = assay: as above; conditions: 72 h
Vero E6 [12] = assay: as above; conditions: 72 h
[13] = test system: A549-ACE2 infected with SARS-CoV-2; assay: SARS-CoV-2 infection rate relative to DMSO; higher = more infection; conditions: 24 h
A549-ACE2 [14] = assay: phospholipidosis EC50; higher = less potent phospholipidosis inducer
[15] = test system: A549-ACE2 infected with SARS-CoV-2; assay: morphology score (similarity to uninfected cells); higher = more like uninfected cells; conditions: 24 h
Caco-2 [16] = assay: drug sensitivity score (DSS) for viability; higher = more toxic; extreme values may be limits of the assay; conditions: 72 h
HepG2 [17] = assay: as above; conditions: 72 h
Calu-3 [18] = assay: as above; conditions: 72 h
U2OS [19] = assay: as above; conditions: 72 h
Vero E6 [20] = assay: as above; conditions: 72 h

CNCc1ccc(C)c(NC(=O)c2ccc(Nc3nc(-c4ccccc4)c4ccccc4n3)cc2)c1
drug-induced phospholipidosis [%], A549-ACE2 [1]
Conditions	0.3 µM	0.833333 µM	3.33333 µM	6.66667 µM	10 µM	30 µM
24 h	5.53	23.7	77.2	98.9	84.8	99.7
48 h	5.67	17.1	89.4	102	92.4	–
72 h	1.97	13.2	86.2	99.1	115	–

Conditions	SARS-CoV-2 infection rate [%]	cell count [%]	cell viability [%]	morphology score	phospholipidosis EC50 [nM]
A549-ACE2 [14], 24 h	–	–	–	–	1580
A549-ACE2 [14], 48 h	–	–	–	–	1490
A549-ACE2 [14], 72 h	–	–	–	–	2070
Caco-2 [3], 1 nM	–	–	93.8	–	–
Caco-2 [3], 10 nM	–	–	99.5	–	–
Caco-2 [3], 100 nM	–	–	90.1	–	–
Caco-2 [3], 1000 nM	–	–	98.3	–	–
Caco-2 [3], 10000 nM	–	–	25.4	–	–
Calu-3 [5], 1 nM	–	–	96.6	–	–
Calu-3 [5], 10 nM	–	–	101	–	–
Calu-3 [5], 100 nM	–	–	102	–	–
Calu-3 [5], 1000 nM	–	–	92	–	–
Calu-3 [5], 10000 nM	–	–	4.1	–	–
HepG2 [4], 1 nM	–	–	107	–	–
HepG2 [4], 10 nM	–	–	104	–	–
HepG2 [4], 100 nM	–	–	105	–	–
HepG2 [4], 1000 nM	–	–	88.3	–	–
HepG2 [4], 10000 nM	–	–	36.8	–	–
U2OS [6], 1 nM	–	–	100	–	–
U2OS [6], 10 nM	–	–	101	–	–
U2OS [6], 100 nM	–	–	103	–	–
U2OS [6], 1000 nM	–	–	100	–	–
U2OS [6], 10000 nM	–	–	35.3	–	–
Vero E6 [7], 1 nM	–	–	101	–	–
Vero E6 [7], 10 nM	–	–	99.6	–	–
Vero E6 [7], 100 nM	–	–	100	–	–
Vero E6 [7], 1000 nM	–	–	98.2	–	–
Vero E6 [7], 10000 nM	–	–	42.1	–	–
[2], 0.1 µM	–	103	–	–	–
[2], 0.3 µM	–	101	–	–	–
[2], 1 µM	–	108	–	–	–
[2], 3 µM	–	127	–	–	–
[13], 0.1 µM	99	–	–	–	–
[13], 0.3 µM	86	–	–	–	–
[13], 1 µM	89	–	–	–	–
[13], 3 µM	24	–	–	–	–
[15], 0.1 µM	–	–	–	0.21	–
[15], 0.3 µM	–	–	–	0.36	–
[15], 1 µM	–	–	–	0.34	–
[15], 3 µM	–	–	–	0.88	–

Conditions	drug sensitivity score	relative viability EC50 [nM]
Caco-2 [8]	–	3000
Caco-2 [16]	4.3	–
Calu-3 [10]	–	2480
Calu-3 [18]	6.6	–
HepG2 [9]	–	1810
HepG2 [17]	5.4	–
U2OS [11]	–	3210
U2OS [19]	3.5	–
Vero E6 [12]	–	2940
Vero E6 [20]	3.4	–

Cc1cccc(Nc2nc(-c3ccncc3)cs2)c1
drug-induced phospholipidosis [%], A549-ACE2 [1]
Conditions	0.3 µM	0.833333 µM	3.33333 µM	6.66667 µM	10 µM	30 µM
24 h	2.6	8.64	73.8	102	110	57.3
48 h	5.9	9.76	87.3	116	123	69.6
72 h	6.14	9.12	70	125	120	–

Conditions	SARS-CoV-2 infection rate [%]	cell count [%]	cell viability [%]	morphology score	phospholipidosis EC50 [nM]
A549-ACE2 [14], 24 h	–	–	–	–	2940
A549-ACE2 [14], 48 h	–	–	–	–	2720
A549-ACE2 [14], 72 h	–	–	–	–	3300
Caco-2 [3], 1 nM	–	–	102	–	–
Caco-2 [3], 10 nM	–	–	111	–	–
Caco-2 [3], 100 nM	–	–	97.4	–	–
Caco-2 [3], 1000 nM	–	–	98	–	–
Caco-2 [3], 10000 nM	–	–	85.8	–	–
HepG2 [4], 1 nM	–	–	104	–	–
HepG2 [4], 10 nM	–	–	108	–	–
HepG2 [4], 100 nM	–	–	97.2	–	–
HepG2 [4], 1000 nM	–	–	94.1	–	–
HepG2 [4], 10000 nM	–	–	48.5	–	–
U2OS [6], 1 nM	–	–	99.2	–	–
U2OS [6], 10 nM	–	–	98.5	–	–
U2OS [6], 100 nM	–	–	95.8	–	–
U2OS [6], 1000 nM	–	–	98.5	–	–
U2OS [6], 10000 nM	–	–	93.6	–	–
Vero E6 [7], 1 nM	–	–	95.5	–	–
Vero E6 [7], 10 nM	–	–	111	–	–
Vero E6 [7], 100 nM	–	–	99	–	–
Vero E6 [7], 1000 nM	–	–	94.9	–	–
Vero E6 [7], 10000 nM	–	–	70.6	–	–
[2], 0.1 µM	–	108	–	–	–
[2], 0.3 µM	–	107	–	–	–
[2], 1 µM	–	110	–	–	–
[2], 3 µM	–	106	–	–	–
[13], 0.1 µM	92	–	–	–	–
[13], 0.3 µM	91	–	–	–	–
[13], 1 µM	83	–	–	–	–
[13], 3 µM	50	–	–	–	–
[15], 0.1 µM	–	–	–	0.25	–
[15], 0.3 µM	–	–	–	0.02	–
[15], 1 µM	–	–	–	0.28	–
[15], 3 µM	–	–	–	0.31	–

Conditions	drug sensitivity score	relative viability EC50 [nM]
Caco-2 [8]	–	> 10000
Caco-2 [16]	0.3	–
HepG2 [9]	–	2220
HepG2 [17]	3.7	–
U2OS [11]	–	> 10000
U2OS [19]	0	–
Vero E6 [20]	2.1	–

Cn1cc(C2=C(c3ccc(Cl)cc3Cl)C(=O)NC2=O)c2ccccc21
drug-induced phospholipidosis [%], A549-ACE2 [1]
Conditions	0.3 µM	0.833333 µM	3.33333 µM	6.66667 µM	10 µM	30 µM
24 h	3.42	26.9	57	74.1	90.2	107
48 h	4.24	11.7	45.3	55.7	59.6	55.3
72 h	4.76	5.3	35.3	56	56.2	54.6

Conditions	SARS-CoV-2 infection rate [%]	cell count [%]	cell viability [%]	morphology score	phospholipidosis EC50 [nM]
A549-ACE2 [14], 24 h	–	–	–	–	6830
A549-ACE2 [14], 48 h	–	–	–	–	1870
A549-ACE2 [14], 72 h	–	–	–	–	3220
Caco-2 [3], 1 nM	–	–	105	–	–
Caco-2 [3], 10 nM	–	–	99.9	–	–
Caco-2 [3], 100 nM	–	–	92.5	–	–
Caco-2 [3], 1000 nM	–	–	105	–	–
Caco-2 [3], 10000 nM	–	–	93.1	–	–
Calu-3 [5], 1 nM	–	–	113	–	–
Calu-3 [5], 10 nM	–	–	108	–	–
Calu-3 [5], 100 nM	–	–	99.5	–	–
Calu-3 [5], 1000 nM	–	–	122	–	–
Calu-3 [5], 10000 nM	–	–	103	–	–
HepG2 [4], 1 nM	–	–	98.8	–	–
HepG2 [4], 10 nM	–	–	95	–	–
HepG2 [4], 100 nM	–	–	100	–	–
HepG2 [4], 1000 nM	–	–	95.1	–	–
HepG2 [4], 10000 nM	–	–	87.2	–	–
U2OS [6], 1 nM	–	–	100	–	–
U2OS [6], 10 nM	–	–	97.9	–	–
U2OS [6], 100 nM	–	–	97.8	–	–
U2OS [6], 1000 nM	–	–	100	–	–
U2OS [6], 10000 nM	–	–	97.8	–	–
Vero E6 [7], 1 nM	–	–	99.1	–	–
Vero E6 [7], 10 nM	–	–	98	–	–
Vero E6 [7], 100 nM	–	–	98.4	–	–
Vero E6 [7], 1000 nM	–	–	96.2	–	–
Vero E6 [7], 10000 nM	–	–	99.8	–	–
[2], 0.3 µM	–	96	–	–	–
[2], 3 µM	–	94	–	–	–
[2], 10 µM	–	96	–	–	–
[2], 30 µM	–	91	–	–	–
[13], 0.3 µM	109	–	–	–	–
[13], 3 µM	101	–	–	–	–
[13], 10 µM	90	–	–	–	–
[13], 30 µM	91	–	–	–	–
[15], 0.3 µM	–	–	–	-0.36	–
[15], 3 µM	–	–	–	-0.27	–
[15], 10 µM	–	–	–	-0.07	–
[15], 30 µM	–	–	–	-0.09	–

Conditions	drug sensitivity score	relative viability EC50 [nM]
Caco-2 [8]	–	> 10000
Caco-2 [16]	0	–
Calu-3 [10]	–	> 10000
Calu-3 [18]	0	–
HepG2 [9]	–	> 10000
HepG2 [17]	0.3	–
U2OS [11]	–	> 10000
U2OS [19]	0	–
Vero E6 [12]	–	> 10000
Vero E6 [20]	0	–
